One assay addresses Cathepsin B (Rattus norvegicus, UniProt P00787). Kind of assay: In vitro assay of inhibition of Cathepsin B (N-CBZ-Phe-Arg-AMC substrate). Format: biochemical. The note with it: r rat CathB, pH5.1, 10 min preincubation at room temperature; read-out: IC50, Cathepsin B. The method, then: After 10 min of incubation at room temperature a 20 μl of 5 mM substrate (N-CBZ-Phe-Arg-AMC, dissolved in DMSO) was added to initiate reaction. Reading is followed up for 10 min at the Fluoroscan reader (excitation at 380 nm, emission at 460 nm).

The target in another assay is Cathepsin L (Rattus norvegicus, UniProt P07154). Kind of assay: Assay of inhibition of Cathepsin L (N-CBZ-Phe-Arg-AMC substrate). It counts as biochemical. The note with it: r rat CathL, pH5.0, 10 min preincubation at room temperature; read-out: IC50, Cathepsin L. The method, then: After 10 min of incubation at room temperature a 20 μl of 1 mM substrate (N-CBZ-Phe-Arg-AMC, dissolved in DMSO) was added to initiate reaction. Reading is followed up for 10 min at the Fluoroscan reader (excitation at 380 nm, emission at 460 nm).
Cathepsin L, sequence (P07154 114-334): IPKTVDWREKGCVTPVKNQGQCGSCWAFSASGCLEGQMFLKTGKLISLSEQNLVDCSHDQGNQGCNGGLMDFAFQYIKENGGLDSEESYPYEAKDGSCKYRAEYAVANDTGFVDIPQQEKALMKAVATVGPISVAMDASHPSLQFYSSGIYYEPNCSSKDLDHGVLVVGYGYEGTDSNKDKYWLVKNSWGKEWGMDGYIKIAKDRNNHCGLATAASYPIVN

Cathepsin B, sequence (P00787 80-339): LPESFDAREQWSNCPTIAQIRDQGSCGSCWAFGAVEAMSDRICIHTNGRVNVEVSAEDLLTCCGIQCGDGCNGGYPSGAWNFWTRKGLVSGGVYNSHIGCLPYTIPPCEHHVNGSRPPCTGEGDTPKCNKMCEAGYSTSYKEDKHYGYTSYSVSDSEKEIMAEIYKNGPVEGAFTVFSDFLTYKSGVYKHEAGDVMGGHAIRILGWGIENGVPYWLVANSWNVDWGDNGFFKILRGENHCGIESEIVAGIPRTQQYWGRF

Take `CC(=O)O[C@@H]1NC(=O)[C@H]1NC(=O)[C@H](Cc1ccccc1)NC(=O)CCc1ccccc1` [Example 10, (3S,4S)-3-{N-(3-phenylpropionoyl)-L-phenylalanyl}-amino-4-acetoxy-azetidin-2-one]: the half-inhibitory concentration (IC50) – broadly, the concentration at which inhibition is half-maximal – on Cathepsin B was 470 nM; on Cathepsin L, 35 nM.

As to `CC(=O)O[C@@H]1NC(=O)[C@H]1NC(=O)[C@H](Cc1ccccc1)NS(=O)(=O)/C=C/c1ccccc1` [Example 11], the figures for the IC50 on Cathepsin B and at Cathepsin L were 1660 nM and 1840 nM, respectively.

For the compound `CC(=O)O[C@@H]1NC(=O)[C@H]1NC(=O)[C@H](Cc1ccccc1)NC(=O)N1CCOCC1` [Example 12, (3S,4S)-3-{N-(morpholin-yl-carbonyl)-L-phenylalaninyl}-amino-4-acetoxy-azetidin-2-one], the IC50 was 7400 nM on Cathepsin B and 1580 nM on Cathepsin L.

For the compound `CC(=O)O[C@@H]1NC(=O)[C@H]1NC(=O)[C@H](Cc1ccccc1)NC(=O)CCN1CCOCC1` [Example 13], the half-maximal inhibitory concentration (IC50) on Cathepsin B was 39200 nM; on Cathepsin L, 2310 nM.

Take `CC(=O)O[C@@H]1NC(=O)[C@H]1NC(=O)[C@H](Cc1ccccc1)NC(=O)CCc1cccnc1` [Example 14, (3S,4S)-3-{N-(3-pyrid-3-yl-propionoyl)-L-phenylalanyl}-amino-4-acetoxy-azetidin-2-one]: the values for the half-inhibitory concentration (IC50) on Cathepsin B and on Cathepsin L were 24500 nM and 1290 nM, respectively.

Turning to `CC(=O)Oc1ccc(OCC(=O)N[C@@H](Cc2ccccc2)C(=O)N[C@@H]2C(=O)N[C@H]2OC(C)=O)cc1` [Example 15, (3S,4S)-3-[N-{2-(4-acetoxyphenoxy)-ethanoyl}-L-phenylalanyl]-amino-4-acetoxy-azetidin-2-one], the 50% inhibitory concentration (IC50) at Cathepsin B turned out to be 6330 nM; at Cathepsin L, 2070 nM.

As for `CC(=O)O[C@@H]1NC(=O)[C@H]1NC(=O)[C@H](Cc1ccccc1)NC(=O)c1cc2ccccc2o1` [Example 16, (3S,4S)-3{N-(benzofuran-2-yl-carbonyl)-L-phenylalanyl}-amino-4-acetoxy-azetidin-2-one], the figures for the IC50 at Cathepsin B and at Cathepsin L were 5680 nM and 35 nM, respectively.

Consider `CC(=O)O[C@@H]1NC(=O)[C@H]1NC(=O)[C@H](Cc1ccccc1)NC(=O)/C=C/c1cccs1` [Example 17, (3S,4S)-3-[N-{3-(thiophen-2-yl)-trans-prop-2-enoyl}-L-phenylalanyl]-amino-4-acetoxy-azetidin-2-one], for which the half-maximal inhibitory concentration (IC50) on Cathepsin B amounted to 5370 nM; at Cathepsin L, 31.5 nM.

Regarding `CC(=O)O[C@@H]1NC(=O)[C@H]1NC(=O)[C@H](Cc1ccccc1)NS(=O)(=O)c1ccc(C(C)(C)C)cc1` [Example 18], the 50% inhibitory concentration (IC50) on Cathepsin B was 2120 nM; at Cathepsin L it was 82 nM.

As to `CC(=O)O[C@@H]1NC(=O)[C@H]1NC(=O)[C@H](Cc1ccccc1)NS(=O)(=O)c1ccc2ccccc2c1` [Example 19, (3S,4S)-3-{N-(naphthalen-2-yl-sulfonyl)-L-phenylalanyl}-amino-4-acetoxy-azetidin-2-one], the results for the IC50 at Cathepsin B and on Cathepsin L were 7220 nM and 416 nM, respectively.

In the case of `O=C(N[C@@H](Cc1ccccc1)C(=O)N[C@@H]1C(=O)N[C@H]1Sc1ccccc1)OCc1ccccc1` [Example 20, (3R,4S)-3-(N-benzyloxycarbonyl-L-phenylalanyl)-amino-4-phenylthio-azetidin-2-one], the IC50 on Cathepsin L was 0.108 nM.

`O=C(N[C@@H](Cc1ccccc1)C(=O)N[C@@H]1C(=O)N[C@H]1S(=O)(=O)c1ccccc1)OCc1ccccc1` [Example 21, (3R,4S)-3-(N-benezyloxycarbonyl-phenylalanyl)-amino-4-phenylsulfonyl-azetidin-2-one]: the figures for the half-maximal inhibitory concentration (IC50) at Cathepsin B and at Cathepsin L were 7390 nM and 0.126 nM, respectively.

For the compound `O=C(CCc1ccccc1)N[C@@H](Cc1ccccc1)C(=O)N[C@@H]1C(=O)N[C@H]1Oc1ccccc1` [Example 26, (3S,4S)-3-{N-(3-phenylpropionoyl)-L-phenylalanyl}-amino-4-phenoxy-azetidin-2-one], the half-inhibitory concentration (IC50) on Cathepsin B came out at 2190 nM; at Cathepsin L, 55.6 nM.

For the origin of these results see patent US5986108A, “4-substitued-3-[1 or 2 amino acid residue]-azetidin-2-one derivatives useful as cysteine proteinase inhibitor” (Synphar Laboratories, Inc., priority 1997, dated 1999).
